≈ marks a conversion by molar mass, not a printed value.

What is called IC50 is the concentration that inhibits the measured activity by half.

Common to all, as to type: cell-based
Assay [1] relates to cultured human tumor cell lines. Put plainly: Growth inhibition, statements across the whole panel of cell lines. The following applies: for activity among the compounds tested: in general, across the cell lines, result in words. The method, then: (§1) For the detailed evaluation of their biological profile as anti-cancer agents, cultured human tumor cell lines were treated with the new ansamitocin derivatives. In particular, the 19-fluoro-20-demethoxyansamitocin P3 (F-A), 19-chloro-20-demethoxyansamitocin P3 (Cl-A), 19-bromo-20-demethoxyansamitocin P3 (Br-A), and the 20-demethoxy-19-vinylansamitocin P3 (VI) were tested for their inhibitory effect on cell growth of different cell lines, namely KB-3-1, U-937, PC-3, SK-OV-3, A-498, A-431, and A-549, in comparison to natural biosynthesis product Ansamitocin P-3 (AP-3). Growth inhibition was measured in microtiter plates. 60 µl of serial dilutions of the test compounds were added to aliquots of 120 µl of the suspended cells (50000/ml). After 5 days the growth was determined using a MTT assay, except for U-937, where the WST-1 assay from Roche was employed.

In another assay the test system is A-431. Put plainly: Growth inhibition of cultured human tumor cell lines in microtiter plates, MTT assay. As to conditions: A-431, Epidermoid carcinoma, 5 days; for IC50: Homo sapiens, 120 h, read-out: Antiproliferative activity IC50. How it is done: as §1
Another assay deals with A-498. Described as above. As to conditions: A-498, Kidney carcinoma, 5 days; for IC50: Homo sapiens, A498, 120 h, read-out: Antiproliferative activity IC50. How it is done: as §1
In the next assay the test system is A-549. Described as above. The following applies: A-549, Lung carcinoma, 5 days; for IC50: Homo sapiens, A549, 120 h, read-out: Antiproliferative activity IC50. How it is done:
as §1

The next assay deals with KB-3-1. The description is as above. The following applies: KB-3-1, Cervix carcinoma, 5 days; for IC50: Homo sapiens, 120 h, read-out: Antiproliferative activity IC50. How it is done: as §1
A further assay has as its system PC-3. The description is as above. The following applies: PC-3, Prostate carcinoma, 5 days; for IC50: Homo sapiens, 120 h, read-out: Antiproliferative activity IC50. How it is done: as §1
A further assay deals with SK-OV-3. Described as above. The following applies: SK-OV-3, Ovarian carcinoma, 5 days; for IC50: Homo sapiens, 120 h, read-out: Antiproliferative activity IC50. The method, then:
as §1

For another assay, the system named is U-937. Put plainly: Growth inhibition of cultured human tumor cell lines in microtiter plates, WST-1 assay. The following applies: U-937, Lymphoma, 5 days; for IC50: Homo sapiens, 120 h, read-out: Antiproliferative activity IC50. How it is done:
as §1
Background: Formazan colour is commonly taken as a measure of viable cells.

For the molecule “19-fluoro-20-demethoxyansamitocin P3 [F-A]”, the “activity among the compounds tested” value in assay [1] was “most active”.

Regarding `CO[C@@H]1/C=C/C=C(\C)Cc2ccc(Br)c(c2)N(C)C(=O)C[C@H](OC(=O)C(C)C)[C@]2(C)O[C@H]2[C@H](C)[C@@H]2C[C@@]1(O)NC(=O)O2` [Br-A, 19-bromo-20-demethoxyansamitocin P3], the “Antiproliferative activity IC50” value is recorded as 0.1 ng/mL with A-431; 4 ng/mL with A-498; 0.3 ng/mL in the assay on A-549; 0.3 ng/mL with KB-3-1; 0.1 ng/mL in the assay on PC-3; 0.05 ng/mL with SK-OV-3. Further, the “Antiproliferative activity IC50” value in the assay on U-937 was found to be 0.03 ng/mL.

Take `CO[C@@H]1/C=C/C=C(\C)Cc2ccc(Cl)c(c2)N(C)C(=O)C[C@H](OC(=O)C(C)C)[C@]2(C)O[C@H]2[C@H](C)[C@@H]2C[C@@]1(O)NC(=O)O2` [Cl-A, 19-chloro-20-demethoxyansamitocin P3]: the IC50 stood at 0.15 ng/mL (≈ 0.248 nM) in the assay with A-431; 3 ng/mL (≈ 4.96 nM) in the assay with A-498; 0.4 ng/mL (≈ 0.661 nM) with A-549; 0.35 ng/mL (≈ 0.578 nM) in the assay with KB-3-1; 0.12 ng/mL (≈ 0.198 nM) in the assay on PC-3; 0.1 ng/mL (≈ 0.165 nM) in the assay on SK-OV-3. In addition, the IC50 in the assay with U-937 stood at 0.035 ng/mL (≈ 0.0578 nM). Further, in assay [1], the “activities weaker than that of the natural AP-3” value is given as 3-50 times.

Turning to `COc1cc2cc(c1Cl)N(C)C(=O)C[C@H](OC(=O)C(C)C)[C@]1(C)O[C@H]1[C@H](C)[C@@H]1C[C@@](O)(NC(=O)O1)[C@H](OC)/C=C/C=C(\C)C2` [AP-3, Ansamitocin P-3, reference compound], the concentration for half-maximal inhibition (IC50) in the assay with A-431 came out at 0.05 ng/mL (≈ 0.0787 nM); in the assay on A-498 it was 1.1 ng/mL (≈ 1.73 nM); with A-549 it was 0.1 ng/mL (≈ 0.157 nM); in the assay on KB-3-1 it was 0.11 ng/mL (≈ 0.173 nM); in the assay on PC-3, 0.035 ng/mL (≈ 0.0551 nM); in the assay with SK-OV-3, 0.03 ng/mL (≈ 0.0472 nM). For the same molecule, the IC50 with U-937 amounted to 0.0035 ng/mL (≈ 0.00551 nM).

As to `CO[C@@H]1/C=C/C=C(\C)Cc2ccc(F)c(c2)N(C)C(=O)C[C@H](OC(=O)C(C)C)[C@]2(C)O[C@H]2[C@H](C)[C@@H]2C[C@@]1(O)NC(=O)O2` [F-A, 19-fluoro-20-demethoxyansamitocin P3], the IC50 in the assay with A-431 stood at 0.04 ng/mL (≈ 0.0679 nM); in the assay with A-498, 2 ng/mL (≈ 3.4 nM); in the assay on A-549 it was 0.11 ng/mL (≈ 0.187 nM); in the assay on KB-3-1, 0.18 ng/mL (≈ 0.306 nM); in the assay with PC-3, 0.035 ng/mL (≈ 0.0595 nM); in the assay on SK-OV-3, 0.035 ng/mL (≈ 0.0595 nM). Also, the IC50 in the assay with U-937 is 0.01 ng/mL (≈ 0.017 nM).

With 20-demethoxy-19-vinylansamitocin P3, the “activity among the compounds tested” value in assay [1] was “most active”.

(Values after EP2103618A1, “Novel ansamitocin derivatives” (Leibniz Universität Hannover, priority 2008, dated 2009).)
